Measurements taken from patent US11124774B2, “Engineered liver tissues, arrays thereof, and methods of making the same” (Organovo, Inc., priority 2013, dated 2021).

Test system: bioprinted hepatic stellate cell tissues
Assay: Stimulation of bioprinted hepatic stellate cell tissues with cytokine
Type: cell-based, human
Protocol: FIG. 15 is a non-limiting example of stimulation of bioprinted hepatic stellate cell tissues with TGF-β1.
Cylindrical bio-ink comprising relevant heterogeneous (i.e., polytypic) cell populations were prepared. Physiologically-relevant populations (e.g., hepatic stellate cells (hSC) and human aortic endothelial cells (EC)) of cells were combined at specific ratios to generate proper bio-ink. Cells were maintained and propagated under standard laboratory conditions and cells were cultured in media either purchased from the same vendor as the cells, or media comprising components typically found in the primary literature to be conducive to standard cell culture practices for those particular cell types. Cell processing for bio-ink preparation was as follows: briefly, cells were liberated from standard tissue culture plastic by washing with cation-free phosphate buffered saline (PBS) and then exposed to 0.1-0.05% trypsin (Invitrogen). Liberated cells were then washed in serum-containing media, collected, counted, and combined in an appropriate ratio for the stimulation assay or experiment being conducted, and pelleted by centrifugation. Supernatant was then removed and the cell pellet was aspirated into a glass microcapillary, which was then submerged in complete media for approximately 15 to 20 minutes. This cylindrical bio-ink structure was then extruded into a non cell-adherent hydrogel mold, containing linear channels and held for 2 to 18 hours. Cylindrical bio-ink containing hSC:EC was then used to fabricate bioprinted tissue constructs and maintained and/or matured in a humidified chamber. Tissue segments were fabricated with initial dimensions of 1.25 mm×8 mm×0.25 mm (W×L×H). During the post-bioprinting maturation period some constructs were exposed to the cytokine TGF-β1 to elicit a tissue-specific response (see FIG. 15).
The bioprinted neotissues were then submerged in serum-containing complete cell culture media and placed in a standard humidified chamber, supplemented with 5% CO2 for maturation. The bioprinted neotissues were then cultured and stimulated with a relevant cytokine(s) for a predetermined period of time, formalin-fixed, harvested, and processed for standard histology and immunohistochemistry. The bioprinted tissues were evaluated for characteristics such as, but not limited to for tissue morphology, cell organization, extracellular matrix production, cell proliferation, cell viability, and construct integrity.
Cytokine stimulation was conducted by adding cytokine directly to the culture media and incubating the bioprinted tissues with the added protein to provide direct and prolonged cell access to the proper stimulus. […]

[1] = 0-50 ng/mL, tissue sections of bioprinted hepatic stellate-containing tissues (FIG. 15E-H)

TGF-β1: cytokine (transforming growth factor beta 1) used to elicit a tissue-specific response in bioprinted tissues
cell density [1]: dramatic decreases in cell density
collagen deposition (Trichrome staining) [1]: increases in collagen deposition
construct size [1]: increases
tissue outgrowth formation (gross observation) (increasing concentrations 0, 1, 10, 50 ng/mL, bioprinted hepatic stellate cell sheets (FIG. 15A-D)): increases in tissue outgrowth formation
